Measured values as given in patent US20230365577A1, “Photodynamic Therapy and Diagnosis” (RMW CHO Group Limited, priority 2020, published 2023).
Where two headings read alike, the source gives them in different places.

Assays:
[1] = In vivo toxicity in wild type mice; settings: intravenous or intraperitoneal injection, 0.5 to 5 mg/kg
Description: The potential application of compound 6 as a representative phyllochlorin species was explored in vivo. Wild type mice (Balb/C and C57BL/6) received compound 6 by intravenous or intraperitoneal injection, with doses ranging from 0.5 to 5 mg/kg.

[2] = tested on: SKOV3 ovarian cancer cells; experiment: Phototoxicity in SKOV3 cells (652 nm laser, AlamarBlue viability); assay type: cell-based, Human; settings: for IC90: Homo sapiens, SK-OV-3, light or radiation study
Outline: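 SKOV3 cells were loaded for 24 h with photosensitizer (0–10 μM in DMSO) in medium containing 10% Kollidon-12. After a media change they were irradiated at 652 nm, 50 mW/cm^2 for 5 min (15 J/cm^2), cultured a further 24 h, and viability was read by AlamarBlue in quadruplicate. Phototoxicity IC90 and dark-toxicity IC10 came from variable-slope normalized dose–response fits.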

[3] = tested on: SKOV3 ovarian cancer cells; experiment: Inherent cytotoxicity (dark toxicity) in SKOV3 cells (AlamarBlue viability); assay type: cell-based, Human; settings: human, 24 h
[4] = tested on: 4T1 orthotopically implanted breast tumours; experiment: Photodynamic therapy of established breast tumours; assay type: in vivo, Balb/C wild type mice
Description: Balb/C wild type mice with established 4T1 orthotopically implanted breast tumours were administered compound 6 by IT injection. At 24 hours post-injection (allowing compound 6 to clear from non-tumour tissues), mice were placed in clear perspex cages and illuminated (whole body) under red (660 nm) light for a period of 20 minutes. Light (660 nm) was delivered at an intensity of 100 mW/cm^2 for 20 mins continuously, to achieve a total light dose of 120 J/cm^2. […]

[5] = tested on: 4T1 murine breast cancer cells; experiment: Tumour localisation and retention, model 1 (subcutaneous 4T1 tumours); assay type: in vivo, Balb/C wild type mice
Description: Model 1 used Balb/C wild type mice implanted subcutaneously with 10^4×4T1 murine breast cancer cells. When tumours reached a palpable size (˜3-6 mm diameter) mice received compound 6 by either oral gavage (ORAL: 2.5 mg/kg), intravenous injection (IV: 1.0 mg/kg), or intratumoral injection (IT: 1.0 mg/kg in […]). To establish compound 6 localisation, mice were imaged using an IVIS Lumina III In Vivo Imaging System (Perkin Elmer) to detect fluorescence at 660 nm when illuminated under blue (400-460 nm) light.
In a second experiment, the localisation of compound 6 at 24 hours post-administration was compared to that of Talaporfin sodium and 5-Aminolevulinic acid (5-ALA), with all compounds injected at 0.1 mg/kg IT. Fluorescence measurements were made using an IVIS Lumina III instrument (as above).

A549 = experiment: Cytotoxicity, pan-cancer panel; assay type: cell-based; settings: A549, lung adenocarcinoma
Description: (§1) To test for inherent cytotoxicity (i.e. “dark toxicity”) of the phyllochlorin analogue the culture media was replaced after 24 hours with fresh media containing 10% (v/v) AlamarBlue Cell Viability Reagent (ThermoFisher) and cells incubated at 37° C. for 6 hours. Untreated cells were used as a control. Fluorescence (Ex 555 nm/Em 596 nm) was measured using a Cytation 3 Multimode Plate Reader (Biotek), and cytotoxicity assessed according to the % viable cells remaining. All measurements were made in quadruplicate.
(§2) The activity of phyllochlorin analogues against multiple cancer cell types was assessed as above, using compounds 3 and 6 as examples.

LP9 = experiment: Cytotoxicity, pan-cancer panel; assay type: cell-based; settings: LP9, immortalised mesothelial cells
Description: as §1, §2

MDA-MB-468 = experiment: Cytotoxicity, pan-cancer panel; assay type: cell-based; settings: MDA-MB-468, breast adenocarcinoma (triple negative)
Description: as §1, §2

HEK293 = experiment: Cytotoxicity, pan-cancer panel; assay type: cell-based; settings: HEK293, embryonic kidney
Description: as §1, §2

DLD-1 = experiment: Cytotoxicity, pan-cancer panel; assay type: cell-based; settings: DLD-1, colorectal adenocarcinoma
Description: as §1, §2

B16F10 = experiment: Cytotoxicity, pan-cancer panel; assay type: cell-based; settings: B16F10, melanoma
Description: as §1, §2

HH = experiment: Cytotoxicity, pan-cancer panel; assay type: cell-based; settings: T cell lymphoma
Description: as §1, §2

Structure (SMILES): C=Cc1c(C)c2cc3nc(c(C)c4cc(C)c(cc5nc(cc1[nH]2)C(C)=C5CC)[nH]4)[C@@H](CCC(=O)N(C)CCCS[C@@H]1O[C@H](CO)[C@@H](O)[C@H](O)[C@H]1O)[C@@H]3C [Compound 6, 3-((7S,8S)-18-ethyl-2,5,8,12,17-pentamethyl-13-vinyl-7H,8H-porphyrin-7-yl)-N-methyl-N-(3-(((2S,3R,4S,5S,6R)-3,4,5-trihydroxy-6-(hydroxymethyl)tetrahydro-2H-pyran-2-yl)thio)propyl)propanamide]
- Adverse toxic events [1]: no adverse toxic events observed at any dose
- IC90 ([2]; SKOV3, ovarian clear cell (Table 2), read-out: Phototoxicity IC90): 190 nM
- IC90 ([2]; SKOV3, 24 h uptake, 652 nm laser 50 mW/cm2 5 mins (15 J/cm2), viability 24 h later, read-out: Cellular Toxicity: Phototoxicity IC90): 60 nM
- IC90 ([2]; SKOV3, read-out: Phototoxicity apparent IC90): < 100 nM
- Fold increase in cellular phototoxicity compared to compound 2 ([2]; SKOV3, IC90): approximately 4 fold
- Cellular Toxicity: Dark toxicity IC10 [3]: 9.49 µM
- Cytotoxicity IC10 [3]: 9.49 µM
- Tumour response ([4]; IT injection plus 660 nm light 120 J/cm2 at 24 hours, after 14 days): regressed to an undetectable level
- Time to endpoint (tumour size ≥100 mm2) ([4]; compound alone, no laser): ≤ 13 days
- Tumour regrowth ([4]; compound plus laser, after 3 weeks): no evidence of regrowth
- Time to regression of established tumours to an undetectable level ([4]; compound plus laser, n=2/group): ≤ 14 days
- Tumour localisation at 24 hours post-administration ([5]; 0.1 mg/kg IT, primary breast tumours, IVIS fluorescence): localised strongly to tumour
- Localisation and retention in tumour tissue ([5]; IT 1.0 mg/kg, model 1): at least 48 hours
- Fluorescence retained in tumour ([5]; IV 1.0 mg/kg, model 1): at least 4 hours
- Time of peak in tumour ([5]; IV 1.0 mg/kg, model 1): 1 h
- Tumour fluorescence at 24 hours post-injection ([5]; IV 1.0 mg/kg, model 1): undetectable
- Retention in tumour tissues following administration ([5]; in all cases (models 1 and 2, all routes)): at least 24 hours
- Clearance from healthy tissues ([5]; in all cases, dependent on the tissue type): 4 to 16 h
- Time of peak levels in tumour ([5]; oral gavage 2.5 mg/kg, model 1): 4 h
- Time remaining above background in tumour ([5]; oral gavage 2.5 mg/kg, model 1): at least 24 hours
- Cytotoxicity IC10 (A549): 29.52 µM
- Cytotoxicity IC10 (LP9): 19.63 µM
- Cytotoxicity IC10 (MDA-MB-468): 13.25 µM
- Cytotoxicity IC10 (HEK293): 8.16 µM
- Cytotoxicity IC10 (DLD-1): 9.20 µM
- Cytotoxicity IC10 (B16F10): 22.85 µM
- Cytotoxicity IC10 (HH): 10.25 µM
